Results published in US7214495B2, “Screening method” (Takeda Pharmaceutical Company Limited, priority 2002, dated 2007).
Each block holds one molecule with its values, some of them ahead of it.

Columns and labels:
Format in all cases: cell-based
human-derived GPR40 = target: T1, human-derived GPR40 (Homo sapiens, UniProt O14842); test: Intracellular calcium change (FLIPR) in CHO-K1 cells transiently expressing GPR40; conditions: added in 10^−5 M to 10^−6 M; no response in vector-only control cells
T1 construct: The DNA fragment encoding human GPR40 was acquired by the following PCR procedures; expressed in transfected cells; host or cells: CHO-K1 (transient, Lipofectamine)
Procedure: The CHO-K1 cell line was cultured in HAM F-12 medium (Invitrogen) containing 10% fetal calf serum (Invitrogen), unless otherwise indicated. One day before transfection, 4.5×10^5 cells per 10 cm^2 were plated, followed by incubation in a CO2 incubator adjusted to a concentration of 5% CO2 at 37° C. for at least 15 hours. Using Lipofectamine reagent (Invitrogen), transfection procedures were carried out by modifications of the method attached to the reagent. When a 6-well plate was used for the incubator, the following procedures were performed. First, 2 tubes each having a 1.5 ml volume were prepared and 100 μl each of Opti-MEM-I medium (Invitrogen) was dispensed in each tube. Next, 1 μg of the expression vector was charged in one tube and in another tube, 6 μl of Lipofectamine reagent was charged, which were mixed together. The mixture was settled for 20 minutes at room temperature. To the solution, 800 μl of Opti-MEM-I medium was added and the resulting solution mixture for transfection was added to CHO-K1 cells, which had been previously washed with Opti-MEM-I medium. Then, the cells were incubated in a CO2 incubator for 6 hours. After the incubation, the cells were rinsed with PBS (Invitrogen), then scraped using 0.05% trypsin-EDTA solution (Invitrogen) and recovered by centrifugal operation. The cells obtained were counted and diluted to 5×10^4 cells per 200 μl of the medium. The dilution was dispensed onto a Black walled 96-well plate (Costar) in 200 μl each per well, followed by incubation overnight in a CO2 incubator. Various test samples were added to the CHO-K1 cells in which the receptor was transiently expressed by the transfection operation described above, whereby changes in the intracellular calcium ion level were determined using FLIPR (Molecular Device). In order to determine the changes in the intracellular calcium ion level on FLIPR, the cells were pre-treated by the following procedures. First, for the purpose of adding a fluorescent dye Fluo-3 AM (DOJIN) to the cells or washing the cells immediately before the FLIPR assay, an assay buffer was prepared. A solution obtained by adding 20 ml of 1M HEPES (pH 7.4) (DOJIN) to 1000 ml of HBSS (Invitrogen) was prepared (hereinafter HBSS/HEPES solution), to which 10 ml of a solution mixture obtained by dissolving 710 mg of Probenecid (Sigma) in 5 ml of 1N NaOH and further adding 5 ml of HBSS/HEPES solution was added. The resulting solution was used as the assay buffer. Next, 50 μg of Fluo-3AM was dissolved in 21 μl of DMSO (DOJIN) and an equal volume of 20% Pulronic acid (Molecular Probes) was added to and mixed with the solution. The mixture was then added to 10.6 ml of the assay buffer supplemented with 105 μl of fetal calf serum to prepare a fluorescent dye solution. The medium for the transfection-treated CHO-K1 cells was removed. Immediately thereafter, the fluorescent dye solution was dispensed in 100 μl each/well and the cells were incubated in a CO2 incubator for an hour so that the fluorescent dye was taken up into the cells. The cells after the incubation was washed with the assay buffer described above and set on FLIPR. A test sample added to the receptor-expressed CHO-K1 cells was prepared using the assay buffer and set on FLIPR at the same time. After various test samples were added thereto.
Following the pre-treatment above, changes in intracellular calcium level after addition of various test samples were measured on FLIPR.

Mouse GPR40 = target: T2, Mouse GPR40 (Mus musculus, UniProt Q76JU9); test: cAMP production in mouse GPR40-expressed CHO cells; conditions: 10 minutes; for cAMP production activity, presence of forskolin: 2 μM forskolin
T2 construct: expressed in transfected cells
Procedure: (§1) Human and mouse GPR40-expressed CHO cells were incubated for 20 hours in a 96-well Plate at a density of 1×10^5/well. After the cells were washed twice with 100 μl of Assay Buffer (DMEM (Invitrogen) containing 0.1 mM IBMX (Wako Pure Chemical) and 0.1 mM Ro-20-1724 (Biomol)), DHA, solutions of linoleic acid and […] (both by SIGMA) in Assay Buffer in the presence or absence of 2 μM forskolin (Wako Pure Chemical) were added to the cells, followed by reacting at 37° C. for 10 minutes. After the reaction, the cells were lysed in accordance with the formulation of cAMP Screen (ABI) and the cAMP level in the cells was assayed.

human GPR40 = target: T3, human GPR40 (Homo sapiens, UniProt O14842); test: cAMP production in human GPR40-expressed CHO cells; conditions: 10 minutes; for cAMP production activity, presence of forskolin: 2 μM forskolin
T3 construct: The resulting fragment (ca. 1 kb) was introduced into vector pAKKO-111, which was used for transfection of CHO cells; expressed in transfected cells
Procedure: as §1

T1 sequence (O14842 whole entry, the tested form may be a part): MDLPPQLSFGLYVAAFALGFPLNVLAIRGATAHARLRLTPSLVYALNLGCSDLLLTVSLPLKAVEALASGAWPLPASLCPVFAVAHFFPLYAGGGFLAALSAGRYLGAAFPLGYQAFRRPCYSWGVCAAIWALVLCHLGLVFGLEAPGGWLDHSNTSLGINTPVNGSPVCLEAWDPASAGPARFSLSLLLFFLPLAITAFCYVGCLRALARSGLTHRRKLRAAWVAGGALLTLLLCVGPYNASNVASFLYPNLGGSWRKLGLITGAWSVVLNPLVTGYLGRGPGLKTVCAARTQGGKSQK
T3 sequence (O14842 whole entry, the tested form may be a part): as above
T2 sequence (Q76JU9 whole entry): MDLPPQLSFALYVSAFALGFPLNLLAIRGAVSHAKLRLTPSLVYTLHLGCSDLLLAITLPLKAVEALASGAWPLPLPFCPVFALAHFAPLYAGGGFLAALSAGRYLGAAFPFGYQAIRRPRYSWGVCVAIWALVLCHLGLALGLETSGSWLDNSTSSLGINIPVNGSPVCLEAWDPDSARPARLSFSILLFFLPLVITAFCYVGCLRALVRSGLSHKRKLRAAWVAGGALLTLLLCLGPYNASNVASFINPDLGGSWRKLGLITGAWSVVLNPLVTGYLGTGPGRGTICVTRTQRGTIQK

SMILES: CCCCC/C=C\C/C=C\C/C=C\C/C=C\CCCC(=O)O [Arachidonic acid (C20:4), Arachidonic acid]
response (increase in intracellular calcium level) of GPR40-expressing CHO-K1 cells (human-derived GPR40): specifically responsive

SMILES: CC/C=C\C/C=C\C/C=C\C/C=C\C/C=C\C/C=C\CCC(=O)O [Docosahexaenoic acid (C22:6), 4Z,7Z,10Z,13Z,16Z,19Z-docosahexaenoic acid]
cAMP production activity, presence of forskolin (Mouse GPR40): no activity was shown
cAMP production activity, absence of forskolin (Mouse GPR40): did not show any cAMP production activity
response (increase in intracellular calcium level) of GPR40-expressing CHO-K1 cells (human-derived GPR40): specifically responsive
cAMP production activity, presence of forskolin (human GPR40): weakly shown
cAMP production activity, absence of forskolin (human GPR40): did not show any cAMP production activity

SMILES: CCCCCCCC/C=C\CCCCCCCC(=O)O [Oleic acid (C18:1), Oleic acid]
response (increase in intracellular calcium level) of GPR40-expressing CHO-K1 cells (human-derived GPR40): specifically responsive

Now from value to molecule, other results behind:

cAMP production activity, presence of forskolin (Mouse GPR40): no activity was shown
response (increase in intracellular calcium level) of GPR40-expressing CHO-K1 cells (human-derived GPR40): specifically responsive
cAMP production activity, presence of forskolin (human GPR40): weakly shown
SMILES: CCCCC/C=C\C/C=C\CCCCCCCC(=O)O [Linoleic acid (C18:2), Linoleic acid]
cAMP production activity, absence of forskolin (Mouse GPR40): did not show any cAMP production activity
cAMP production activity, absence of forskolin (human GPR40): did not show any cAMP production activity

cAMP production activity, presence of forskolin (Mouse GPR40): no activity was shown
cAMP production activity, presence of forskolin (human GPR40): weakly shown
SMILES: CCCCC/C=C\C/C=C\C/C=C\CCCCC(=O)O [γ-Linolenic acid (C18:3), γ-Linolenic acid]
cAMP production activity, absence of forskolin (Mouse GPR40): did not show any cAMP production activity
cAMP production activity, absence of forskolin (human GPR40): did not show any cAMP production activity
